Results as given in paper PMC4405350, “From Broad-Spectrum Biocides to Quorum Sensing Disruptors and Mussel Repellents: Antifouling Profile of Alkyl Triphenylphosphonium Salts” (PLoS ONE, 2015).
Like-named read-outs stand apart in the source and are kept apart here.

Key:
[1] = system: violacein production of C. violaceum CVO26; test: Quorum sensing bioassay: violacein production; format: cell-based, Chromobacterium violaceum; settings: 18 h; for IC50: Chromobacterium violaceum, read-out: IC50 (Violacein inhibition); for IC50 (Violacein inhibition): with HHL, compounds 3-5 and 7 tested up to 500 μM, others up to 100 μM
Method: The reporter strain C. violaceum CVO26 (CECT 5999) was used to screen the ability of the products to interfere with violacein production, a QS-regulated phenotype. C. violaceum CVO26 is a mini-Tn5 mutant that depends on an exogenous source of autoinducer (AI) (N-hexanoyl homoserine lactone, HHL) for violacein production. C. violaceum CVO26 was cultured in LB broth (Sigma-Aldrich) supplemented with 25 μg ml^-1 kanamycin. Inocula were prepared by dilution (1:100) of an overnight culture of the reporter strain [49]. One hundred microliters of inoculum with HHL (Sigma-Aldrich, 6 μM) or without the AI were added to 96-well plates containing 100 μl of the appropriate dilutions of the test products in LB. Thus, two sets of plates were prepared. One set of plates (without HHL) was used to evaluate the effect of the products on bacterial growth, whereas the other set of plates (with HHL) was used to evaluate their effect on violacein production. Both sets of plates were incubated at 30 °C with agitation (150 rpm) for 18 h.
Growth inhibition was quantified in the first batch of plates by re-suspending bacterial pellets and measuring the OD625. From the second batch of plates violacein was extracted and quantified. Briefly, the plates were dried overnight (60 °C) and violacein was re-solubilized by the addition of 200 μl of DMSO. The plates were shaken for 3 h and then the OD590 was determined.
To evaluate the effect of the alkyl triphenylphosphonium salts on QS-regulated phenotypes, an initial screening at the cut-off concentration of 100 μM was conducted with C. violaceum CVO26. The QS model of C. violaceum is relatively simple and consists of an acyl-homoserine lactone synthase (CviI) that produces the AI molecule N-hexanoyl homoserine lactone (HHL, strain ATCC 31532), or N-3-hydroxydecanoyl homoserine lactone (strain ATCC 12472) which is recognized by the cytoplasmic receptor CviR (Fig 4). The reporter strain CVO26 is a CviI::mini-Tn5 mutant of strain ATCC 31532 and thus recognizes HHL. CviR is a DNA-binding transcription factor that activates the expression of the genes encoding the production of violacein, the characteristic purple alkaloid that gives name to the species.
Indeed, the inhibitions observed in violacein production for long alkyl chains (10–18, 20) were clearly correlated to the biocidal effect exerted by these compounds, with ‘therapeutic ratios’ (IC50 for growth inhibition/IC50 for violacein inhibition) around 1, in general (Table 2). Note that, as the length of the hydrocarbon chain becomes shorter, this ratio increased (8–9). […] To evaluate these compounds in further detail, […] stock solutions were prepared […] to avoid the use of high concentrations of DMSO in the bioassays. […] Serial two-fold dilutions (500–3.9 μM) were assayed. Consequently, the highest amount of DMSO used in the assay was 0.25% (v/v). […] Growth inhibitory effects are only observed at 500 μM, particularly for compound 7 (Fig 6D).

Fusarium sp. = test: Marine-derived fungi growth inhibition (OD405); format: cell-based; settings: Fusarium, 120 h, 5 days, 26 °C
Method: All the biological assays were run by triplicate.
Three strains of marine-derived fungi were kindly provided by Dr. Á. Trigos (University of Veracruz, Mexico). The strains were isolated from reef organisms collected from the Veracruz Reef System and identified as Aspergillus sp., Fusarium sp. and Alternaria sp..
Fungal strains were cultured in Potato-Dextrose Agar (PDA) supplemented with filtered seawater (FSW) (50% v/v) at 26 °C for 5 days prior to experiments. […] Briefly, fungal inocula were prepared by addition of 5 ml of sterile saline solution to the cultures. Gently swabbing released conidia. […] The plates were incubated for 5 days at 26 °C. The calculation of the half-maximal inhibitory concentrations (IC50) was performed using OD405 as endpoint.

Cobetia marina CECT 4278 = test: Marine bacteria growth inhibition (broth microdilution, OD625); format: cell-based; settings: Cobetia marina, read-out: IC50 C. marina
Method: (§1) All the biological assays were run by triplicate. […] For the active products, serial dilutions were performed to calculate the half-maximal inhibitory concentrations (IC50) or the minimal inhibitory concentrations (MIC). Unless otherwise stated, the test concentrations were 100, 50, 25, 10, 5, 2.5, 1, 0.5 and 0.1 μM. Dose-response curves were adjusted with GraphPad Prism 5 software using a four-parameter non-linear regression model.
(§2) Growth inhibition was assessed in Marine Broth (Conda) according to CLSI guidelines for broth microdilution susceptibility testing. The incubation time was 24 h and the incubation temperature was 30 °C.

[2] = system: Shewanella algae CECT 5021; test: as above; format: cell-based; settings: Shewanella algae, read-out: IC50 S. algae
Method: as §1, §2

[3] = system: Vibrio alginolyticus CECT 521; test: as above; format: cell-based; settings: Vibrio alginolyticus, read-out: IC50 V. alginolyticus
Method: as §1, §2

[4] = system: Cellulophaga lytica CECT 5014; test: as above; format: cell-based; settings: Cellulophaga lytica, read-out: IC50 C. lytica
Method: as §1, §2

[5] = system: Pseudoalteromonas atlantica CECT 579; test: as above; format: cell-based; settings: Pseudoalteromonas atlantica, read-out: IC50 P. atlantica
Method: as §1, §2

[6] = system: Vibrio anguillarum CECT 4347; test: as above; format: cell-based; settings: Vibrio anguillarum, read-out: IC50 V. anguillarum
Method: as §1, §2

[7] = system: Gayralia oxysperma spores; test: Macroalgal spore germination inhibition; format: cell-based; settings: 6 days, 19±1 °C
Method: as §1
To evaluate the effect of the phosphonium salts on the germination of macroalgal spores, Gayralia oxysperma (Kützing) K.L.Vinogradova was selected as model organism. G. oxysperma (Ulotrichales, Chlorophyta) is a cosmopolitan member of the Ulvophyceae. Unlike Ulva species, which produce biflagellate male and female gametes, as well as quadriflagellate spores, G. oxysperma only produces biflagellate spores. This is an advantage as bioassays can be conducted straightforwardly without the need to distinguish between gamete-producing and zoospore-producing plants. […] Fresh fertile fragments were selected and placed in Petri dishes. Spores were then released in Von Stosch Solution (VSS) by the osmotic method. Bioassays were conducted in flat-bottom 96-well plates as described by Chambers and co-workers, with slight modifications. Each well was filled with 50 μl of the appropriate dilution of the products in VSS to which 50 μl of spore inoculum (ca. 2 x 10^5 spores ml^-1) were added. Plates were incubated at 19±1 °C for 6 days. After the incubation time, the bottom of each well was examined for the presence of germinated spores with an inverted microscope. A spore was considered as germinated when the germ tube was visible. The MIC was recorded as the lowest concentration inhibiting spore germination.

[8] = CECT4278, growth inhibition, 24 h, 30 °C, three replicates
[9] = CECT5021, growth inhibition, 24 h, 30 °C, three replicates
[10] = CECT521, growth inhibition, 24 h, 30 °C, three replicates
[11] = CECT5014, growth inhibition, 24 h, 30 °C, three replicates
[12] = CECT579, growth inhibition, 24 h, 30 °C, three replicates
[13] = CECT4347, growth inhibition, 24 h, 30 °C, three replicates

| SMILES | IC50 [1] | IC50 (Violacein inhibition) [1] | IC50 (Fusarium sp.) | IC50 (Cobetia marina CECT 4278; [8]) | IC50 [2, 9] | IC50 [3, 10] | IC50 [4, 11] | IC50 [5, 12] | IC50 [6, 13] | MIC G. oxysperma (lowest concentration inhibiting spore germination) [7] | IC50 (Cobetia marina CECT 4278; CECT4278, 24 h) | IC50 ([2]; CECT5021, 24 h) | IC50 ([3]; CECT521, 24 h) | IC50 ([4]; CECT5014, 24 h) | IC50 ([5]; CECT579, 24 h) | IC50 ([6]; CECT4347, 24 h) |
| --- | --- | --- | --- | --- | --- | --- | --- | --- | --- | --- | --- | --- | --- | --- | --- | --- |
| BrC(Br)[P+](c1ccccc1)(c1ccccc1)c1ccccc1 [Compound 1] | > 100 µM | inactive | > 100 µM | > 100 µM | > 100 µM | > 100 µM | > 100 µM | > 100 µM | > 100 µM | 100 µM | – | – | – | – | – | – |
| COC(=O)CCC[P+](c1ccccc1)(c1ccccc1)c1ccccc1 [Compound 2] | > 100 µM | inactive | > 100 µM | > 100 µM | > 100 µM | > 100 µM | > 100 µM | > 100 µM | > 100 µM | >100 µM | – | – | – | – | – | – |
| C/C=C/C[P+](c1ccccc1)(c1ccccc1)c1ccccc1 [Compound 3] | 92.3 µM | – | > 100 µM | > 100 µM | > 100 µM | > 100 µM | 73.2 µM | 9.5 µM | > 100 µM | >100 µM | – | – | – | – | – | – |
| BrCCCC[P+](c1ccccc1)(c1ccccc1)c1ccccc1 [Compound 4] | 142 µM | – | > 100 µM | > 100 µM | > 100 µM | > 100 µM | > 100 µM | 26.4 µM | > 100 µM | >100 µM | – | – | – | – | – | – |
| CCCCN[P+](c1ccccc1)(c1ccccc1)c1ccccc1 [Compound 5] | 137 µM | – | > 100 µM | > 100 µM | > 100 µM | > 100 µM | 41.8 µM | > 100 µM | > 100 µM | 100 µM | – | – | – | – | – | – |
| O=S(=O)([O-])CCCC[P+](c1ccccc1)(c1ccccc1)c1ccccc1 [Compound 6] | > 100 µM | – | > 100 µM | > 100 µM | > 100 µM | > 100 µM | > 100 µM | > 100 µM | > 100 µM | >100 µM | – | – | – | – | – | – |
| CCCCC[P+](c1ccccc1)(c1ccccc1)c1ccccc1 [Compound 7] | 52.9 µM | – | > 100 µM | > 100 µM | > 100 µM | > 100 µM | > 100 µM | > 100 µM | > 100 µM | >100 µM | – | – | – | – | – | – |
| CCCCCCC[P+](c1ccccc1)(c1ccccc1)c1ccccc1 [Compound 8, heptyl triphenylphosphonium bromide] | 19 µM | – | > 100 µM | > 100 µM | > 100 µM | > 100 µM | 20 µM | 28.6 µM | > 100 µM | 100 µM | – | – | – | – | – | – |
| CCCCCCCCC[P+](c1ccccc1)(c1ccccc1)c1ccccc1 [Compound 9] | 7.6 µM | – | 31.4 µM | 21 µM | 8.6 µM | 69.7 µM | 2.6 µM | 6.6 µM | 87 µM | 50 µM | – | – | – | – | – | – |
| CCCCCCCCCC[P+](c1ccccc1)(c1ccccc1)c1ccccc1 [Compound 10] | 7.7 µM | – | 21 µM | 8 µM | 10.4 µM | 35.5 µM | 2.6 µM | 5.2 µM | 18.3 µM | 50 µM | – | – | – | – | – | – |
| CCCCCCCCCCC[P+](c1ccccc1)(c1ccccc1)c1ccccc1 [Compound 11] | 3.5 µM | – | 5.3 µM | 6.1 µM | 5.4 µM | 32.9 µM | 1.1 µM | 3 µM | 17 µM | 50 µM | – | – | – | – | – | – |
| CCCCCCCCCCCC[P+](c1ccccc1)(c1ccccc1)c1ccccc1 [Compound 12] | 6.6 µM | – | 6.6 µM | – | – | – | – | – | – | 50 µM | 5.1 µM | 3 µM | 26.3 µM | 1.7 µM | 1.1 µM | 27.5 µM |
| CCCCCCCCCCCCC[P+](c1ccccc1)(c1ccccc1)c1ccccc1 [Compound 13] | 3.9 µM | – | 6.5 µM | 5 µM | 3.6 µM | 11.3 µM | 1.7 µM | 1.2 µM | 5.7 µM | 50 µM | – | – | – | – | – | – |
| CCCCCCCCCCCCCC[P+](c1ccccc1)(c1ccccc1)c1ccccc1 [Compound 14] | 4.6 µM | – | 5.1 µM | 5.3 µM | 1.2 µM | 12.7 µM | 2 µM | 2.3 µM | 1.6 µM | 50 µM | – | – | – | – | – | – |
| CCCCCCCCCCCCCCC[P+](c1ccccc1)(c1ccccc1)c1ccccc1 [Compound 15] | 1.2 µM | – | 4.2 µM | 5.5 µM | 3.8 µM | 5.6 µM | 1.9 µM | 2.9 µM | 2.7 µM | 50 µM | – | – | – | – | – | – |
